This note sets out measurements from ChEMBL document CHEMBL5233244, “Therapeutic potential of targeting α/β-Hydrolase domain-containing 6 (ABHD6)” (Eur J Med Chem, 2020).

Experiment [1] concerns the target T1, Monoacylglycerol lipase ABHD6 (Homo sapiens, UniProt Q9BV23).
T1 sequence (Q9BV23 whole entry): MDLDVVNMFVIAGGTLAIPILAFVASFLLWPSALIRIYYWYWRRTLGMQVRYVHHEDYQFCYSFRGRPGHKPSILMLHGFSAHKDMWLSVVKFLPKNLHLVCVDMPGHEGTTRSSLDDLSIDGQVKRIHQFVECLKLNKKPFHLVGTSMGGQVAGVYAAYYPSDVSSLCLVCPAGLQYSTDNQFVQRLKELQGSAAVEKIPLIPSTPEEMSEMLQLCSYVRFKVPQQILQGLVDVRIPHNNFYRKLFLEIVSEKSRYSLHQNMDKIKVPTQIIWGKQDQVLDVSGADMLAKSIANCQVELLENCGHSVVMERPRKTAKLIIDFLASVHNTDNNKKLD
Description: Inhibition of ABHD6 (unknown origin).

Experiment [2] concerns the target T2, Fatty-acid amide hydrolase 1 (Mus musculus, UniProt O08914).
T2 sequence (O08914 whole entry): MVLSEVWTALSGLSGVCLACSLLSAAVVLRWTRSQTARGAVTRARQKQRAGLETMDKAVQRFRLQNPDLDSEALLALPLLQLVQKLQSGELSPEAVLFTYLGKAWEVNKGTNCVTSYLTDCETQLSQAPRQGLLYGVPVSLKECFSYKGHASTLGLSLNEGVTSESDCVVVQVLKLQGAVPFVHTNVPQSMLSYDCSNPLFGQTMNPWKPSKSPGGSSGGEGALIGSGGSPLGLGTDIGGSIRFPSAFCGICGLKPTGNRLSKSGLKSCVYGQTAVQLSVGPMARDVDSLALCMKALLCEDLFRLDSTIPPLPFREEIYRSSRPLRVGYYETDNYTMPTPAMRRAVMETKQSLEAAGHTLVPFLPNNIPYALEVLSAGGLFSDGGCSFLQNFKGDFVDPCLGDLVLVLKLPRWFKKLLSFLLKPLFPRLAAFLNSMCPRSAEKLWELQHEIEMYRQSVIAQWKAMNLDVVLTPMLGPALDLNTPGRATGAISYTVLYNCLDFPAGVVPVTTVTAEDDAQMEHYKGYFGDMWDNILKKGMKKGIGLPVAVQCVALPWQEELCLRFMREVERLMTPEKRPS
As to the kind of experiment: Inhibition of mouse FAAH expressed in COS-7 cells using [3H]AEA as substrate incubated for 30 mins by liquid scintillation analysis. The class given is cell-based.

Experiment [3] concerns the target T3, Monoacylglycerol lipase ABHD6 (Mus musculus, UniProt Q8R2Y0).
T3 sequence (Q8R2Y0 whole entry): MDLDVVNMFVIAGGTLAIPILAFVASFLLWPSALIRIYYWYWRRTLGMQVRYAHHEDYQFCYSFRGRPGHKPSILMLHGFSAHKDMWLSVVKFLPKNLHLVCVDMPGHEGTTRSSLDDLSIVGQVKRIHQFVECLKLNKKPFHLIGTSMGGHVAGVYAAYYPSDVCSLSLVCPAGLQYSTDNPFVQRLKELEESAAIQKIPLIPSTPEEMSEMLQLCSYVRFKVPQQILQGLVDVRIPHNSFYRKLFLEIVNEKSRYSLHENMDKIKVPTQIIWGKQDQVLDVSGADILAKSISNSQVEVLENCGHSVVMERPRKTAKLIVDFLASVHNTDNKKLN
Description: Inhibition of mouse ABHD6 expressed in COS-7 cells using 2-[3H]AG as substrate incubated for 30 mins by liquid scintillation analysis. It is filed as cell-based.

In the next experiment the target is T4, Monoglyceride lipase (Mus musculus, UniProt O35678).
T4 sequence (O35678 whole entry): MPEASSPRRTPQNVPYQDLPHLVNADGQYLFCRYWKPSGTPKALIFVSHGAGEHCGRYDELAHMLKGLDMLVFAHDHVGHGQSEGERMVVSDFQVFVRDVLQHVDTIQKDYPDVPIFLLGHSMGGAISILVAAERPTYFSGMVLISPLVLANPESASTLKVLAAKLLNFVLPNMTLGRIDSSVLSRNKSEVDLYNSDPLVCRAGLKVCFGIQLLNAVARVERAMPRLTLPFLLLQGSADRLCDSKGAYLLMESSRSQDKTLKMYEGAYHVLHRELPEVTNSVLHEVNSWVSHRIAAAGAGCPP
Description: Inhibition of mouse MAGL expressed in COS-7 cells using 2-[3H]AG as substrate incubated for 30 mins by liquid scintillation analysis. The class given is cell-based.

In experiment [4] the target is T1, Monoacylglycerol lipase ABHD6. Description: Inhibition of human recombinant ABHD6.
In experiment [5] the target is T3, Monoacylglycerol lipase ABHD6. As to the kind of experiment: Inhibition of ABHD6 in mouse brain membrane using HT-01 probe as substrate incubated for 30 mins by gel based competitive ABPP assay. The class given is cell membranes.
The target of experiment [6] is T5, Monoacylglycerol lipase ABHD6 (Mus musculus) (UniProt Q8R2Y0).
T5 sequence (whole entry): T3 sequence (Q8R2Y0 whole entry)
As to the kind of experiment: Inhibition of ABHD6 in mouse brain membrane using FP-biotin as substrate at 10 uM incubated for 1 hr by LC-MS based ABPP-MudPIT analysis. The class given is cell membranes.

Experiment [7] addresses T6, Fatty-acid amide hydrolase 1 (Mus musculus) (UniProt O08914).
T6 sequence (whole entry): T2 sequence (O08914 whole entry)
As to the kind of experiment: Inhibition of FAAH in mouse Primary neuron cells using [3H]AEA as substrate at 30 uM incubated for 30 mins by liquid scintillation analysis. The class given is cell-based.

The target in experiment [8] is T5, Monoacylglycerol lipase ABHD6 (Mus musculus). Description: Inhibition of ABHD6 in mouse Primary neuron cells using 2-[3H]AG as substrate at 30 uM incubated for 30 mins by liquid scintillation analysis. The class given is cell-based.
The target in experiment [9] is T3, Monoacylglycerol lipase ABHD6. Description: Inhibition of ABHD6 in mouse brain membrane using FP-biotin as substrate incubated for 1 hr by LC-MS based ABPP-MudPIT analysis. It is filed as cell membranes.

`COC(=O)[C@]1(C)CC[C@]2(C)CC[C@]3(C)C4=CC=C5C(=CC(=O)C(O)=C5C)[C@]4(C)CC[C@@]3(C)[C@@H]2C1` [PRISTIMERIN]: in [1], the IC50 (commonly the point on the concentration scale where inhibition reaches its midpoint) was found to be 1300 nM.

On to `CC/C=C\C/C=C\C/C=C\CCCCCCCC(=O)OCC1CO1` (stereo not given), for which the figures for the IC50 (in experiment [2]; in experiment [3]; at Monoglyceride lipase) were 900 nM, 800 nM and 270000 nM, respectively.

As to `C#CCO[C@@H]1CC[C@H](Cc2ccccc2)N(C(=O)n2ncc(C(O)(c3ccc(F)cc3)c3ccc(F)cc3)n2)C1`, the IC50 worked out at 2.8 nM in experiment [4] and 126 nM in experiment [5].

Turning to `CC(C)(C)OC(=O)N1CCN(C(=O)n2cc(-c3ccc(OC(F)(F)F)cc3)nn2)C(c2ccccc2)C1` (stereo not given), in experiment [5], the IC50 was 20 nM.

Turning to `CN(Cc1cccc(-c2ccncc2)c1)C(=O)Oc1ccc(-c2ccc(C(N)=O)cc2)cc1`, the inhibition (commonly the percentage by which the read-out fell short of the control) in [6] stood at 90%.

Regarding `CCCCCC/C=C\CCCCCCCC(=O)OCC1CO1` (stereo not given), the inhibition in experiment [7] came out at 60%; in experiment [8] it was 30%. Also, the IC50 in experiment [2] was 4000 nM; in experiment [3] it was 2400 nM.

In the case of `CC(C)(C)OC(=O)N1CCN(C(=O)n2cc(-c3ccc(OC(F)(F)F)cc3)nn2)C(Cc2ccccc2)C1` (stereo not given), the IC50 in experiment [4] was found to be 3.6 nM; in experiment [5] it was 79 nM.

As to `CN(Cc1cccc(-c2ccccc2)c1)C(=O)Oc1ccc(-c2ccc(C(N)=O)cc2)cc1`, inhibition in experiment [9] was half-maximal at 430 nM (IC50).
